Data as given in paper PMC3462495 (2012).

Molecular target: p90 ribosomal S6 kinase 2 (RSK2), N-terminal kinase domain (mRSK2NTKD) (Mus musculus, UniProt P18654)
Assay: ITC
Type: binding

Sequence of p90 ribosomal S6 kinase 2 (RSK2), N-terminal kinase domain (mRSK2NTKD) (P18654 45-346): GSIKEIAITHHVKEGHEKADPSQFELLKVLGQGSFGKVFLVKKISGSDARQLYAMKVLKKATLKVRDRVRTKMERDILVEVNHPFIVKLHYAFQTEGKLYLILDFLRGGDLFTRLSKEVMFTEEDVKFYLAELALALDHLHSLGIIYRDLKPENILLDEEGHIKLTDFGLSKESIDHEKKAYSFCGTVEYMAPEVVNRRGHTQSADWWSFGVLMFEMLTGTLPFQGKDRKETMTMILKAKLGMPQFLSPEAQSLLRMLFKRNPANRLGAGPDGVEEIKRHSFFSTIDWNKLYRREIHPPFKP

Nc1ncnc2c1ncn2[C@@H]1O[C@H](COP(=O)(O)OP(=O)(O)NP(=O)(O)O)[C@@H](O)[C@H]1O [AMP-PNP]
Kd: 50 µM
